The subject of one test is HL-60. Put plainly: Relative differentiating activity of HL-60 cells when the reference value of […] is defined as 1. Type of test: functional, Homo sapiens.
For the compound `C=C1/C(=C\C=C2/CCCC3(C)C2CCC3[C@H](C)/C=C/CC(O)(C(F)(F)F)C(F)(F)F)C[C@@H](O)C[C@@H]1O` (stereo not given in full), the Relative differentiating activity amounted to 30.
The compound `C=C1/C(=C\C=C2/CCCC3(C)C2CCC3[C@H](C)CCCC(F)(F)C(C)(C)O)C[C@@H](O)C[C@@H]1O` (stereo not given in full) gave a Relative differentiating activity of 10.
The same measure, in the same setting: then `C=C1/C(=C\C=C2/CCCC3(C)C2CCC3[C@H](C)/C=C/CC(O)(CC)CC)C[C@@H](O)C[C@@H]1O` (stereo not given in full), with 60; and `C=C1/C(=C\C=C2/CCCC3(C)C2CCC3[C@H](C)/C=C/CCCC(C)(C)O)C[C@@H](O)C[C@@H]1O` (stereo not given in full), with 10.
Compound `C=C1/C(=C\C=C2/CCCC3(C)C([C@H](C)CC#CC(C)(C)O)=CCC23)C[C@@H](O)C[C@@H]1O` (stereo not given in full) had a Relative differentiating activity of 10.
Still for that read-out and setting: then `C=C1/C(=C\C=C2/CCCC3(C)C2CCC3[C@H](C)/C=C/CCC(C)(C)O)C[C@@H](O)C[C@@H]1O` (stereo not given in full), with 10; and `C=C1/C(=C\C=C2/CCCC3(C)C([C@H](C)CC#CC(O)(C(F)(F)F)C(F)(F)F)=CCC23)C[C@@H](O)C[C@@H]1O` (stereo not given in full), with 80.

The subject of a further test is U-937. Put plainly: Relative differentiating activity of U 937 cells when the reference value of […] is defined as 1. Type of test: functional, Homo sapiens.
As to `C=C1/C(=C\C=C2/CCCC3(C)C2CCC3[C@@H](C)CCCCC(C)(C)O)C[C@@H](O)C[C@@H]1O` (stereo not given in full), the Relative differentiating activity is recorded as 200.
Same read-out and setting: then `C=C1/C(=C\C=C2/CCCC3(C)C2CCC3[C@@H](C)CCCCC(O)(CC)CC)C[C@@H](O)C[C@@H]1O` (stereo not given in full), with 200; and `C=C1/C(=C\C=C2/CCCC3(C)C2CCC3[C@@H](C)OCCCC(C)(C)O)C[C@@H](O)C[C@@H]1O` (stereo not given in full), with 1176; and `C=C1/C(=C\C=C2/CCCC3(C)C2CCC3[C@H](C)CCCCC(O)(CC)CC)C[C@@H](O)C[C@@H]1O` (stereo not given in full), with 5.
On the same count and under the same terms, the figure for `C=C1/C(=C\C=C2/CCCC3(C)C2CCC3[C@@H](C)/C=C/CCC(O)(CC)CC)C[C@@H](O)C[C@@H]1O` (stereo not given in full) is 1000; for `C=C1/C(=C\C=C2/CCC[C@]3(C)[C@@H](C(C)OCCCC(O)(CC)CC)CC[C@@H]23)C[C@@H](O)C[C@@H]1O` (single isomer, unassigned) [LEXACALCITOL] it is 20.
As to `C=C1/C(=C\C=C2/CCC[C@]3(C)[C@@H]([C@@H](C)OCCCC(O)(CC)CC)CC[C@@H]23)C[C@@H](O)C[C@@H]1O` [LEXACALCITOL], the Relative differentiating activity is recorded as 20000.
For `C=C1/C(=C\C=C2/CCC[C@]3(C)[C@@H]([C@H](C)/C=C/C=C/C(O)(CC)CC)CC[C@@H]23)C[C@@H](O)C[C@@H]1O` [SEOCALCITOL], the Relative differentiating activity is listed as 67.

The values are drawn from ChEMBL document CHEMBL1131535, “Conformation-function relationship of vitamin D: conformational analysis predicts potential side-chain structure” (1998).
